Laboratory results as given in PubChem BioAssay (NCI).
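All cell lines were grown in 96-well plates and treated with compound for 48 hours. GI50 is the concentration that inhibits growth by half. TGI: total growth inhibition.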

Experiments:
Experiment in all cases: NCI anticancer screen, dose series, 48 h
SK-MEL-5 melanoma = tested on: SK-MEL-5 melanoma
RXF 393 renal = tested on: RXF 393 renal
OVCAR-5 ovarian = tested on: OVCAR-5 ovarian
MDA-MB-231 breast = tested on: MDA-MB-231 breast
HOP-62 NSCLC = tested on: HOP-62 NSCLC
MCF7 breast = tested on: MCF7 breast
IGROV1 ovarian = tested on: IGROV1 ovarian
PC-3 prostate = tested on: PC-3 prostate
NCI-H522 lung = tested on: NCI-H522 lung
A498 renal = tested on: A498 renal

Structure (SMILES)	GI50 (SK-MEL-5 melanoma)	TGI (SK-MEL-5 melanoma)	GI50 (RXF 393 renal)	TGI (RXF 393 renal)	GI50 (OVCAR-5 ovarian)	TGI (OVCAR-5 ovarian)	GI50 (MDA-MB-231 breast)	TGI (MDA-MB-231 breast)	GI50 (HOP-62 NSCLC)	TGI (HOP-62 NSCLC)	GI50 (MCF7 breast)	TGI (MCF7 breast)	GI50 (IGROV1 ovarian)	TGI (IGROV1 ovarian)	GI50 (PC-3 prostate)	TGI (PC-3 prostate)	GI50 (NCI-H522 lung)	TGI (NCI-H522 lung)	TGI (A498 renal)	GI50 (A498 renal)
Cc1c2c(nn1-c1ccc(S/N=C3\SCC(=O)CN3c3ccccc3)cc1)-c1ccccc1CC2	8.11 µM	22.3 µM	31.5 µM	> 50 µM	> 50 µM	> 50 µM	15.4 µM	> 50 µM	12.7 µM	47.7 µM	7.79 µM	36.7 µM	8.31 µM	21.4 µM	20.4 µM	> 50 µM	15.4 µM	> 50 µM		
O=C(/C=N/O)c1c(-c2ccccc2)[nH]c(-c2ccccc2)c1-c1ccccc1		32.8 µM		31.6 µM		21.7 µM		28.7 µM		> 100 µM		39.7 µM		28.4 µM				30.8 µM	62.4 µM	
CC(CN(CP(=O)([O-])[O-])CP(=O)([O-])[O-])N(CP(=O)([O-])[O-])CP(=O)([O-])[O-].N[C@@H]1CCCC[C@@H]1N.[Pt+2] (configuration not stated)	> 100 µM	> 100 µM	> 100 µM	> 100 µM	> 100 µM	> 100 µM			> 100 µM	> 100 µM			> 100 µM	> 100 µM			> 100 µM	> 100 µM	> 100 µM	> 100 µM
COc1ccccc1NC(=O)C1=C(C)NC(C)=C(C(=O)Nc2ccccc2OC)C1c1ccc(C(C)C)cc1		> 100 µM				> 100 µM				> 100 µM				> 100 µM					> 100 µM	
CC(C)(C)c1cc(C(O)(C(F)(F)F)C(F)(F)F)c2c(c1)C(C(F)(F)F)(C(F)(F)F)OC(c1ccccc1)(C(C)(C)C)N2 (configuration not stated)		10.3 µM		12.3 µM		50.9 µM								16.7 µM				8.38 µM		
COc1nc2c(nc(N)n2C2OC(CO)C(O)C(O)C2O)c(=O)n1C (configuration not stated)		> 100 µM		> 100 µM						> 100 µM				> 100 µM				> 100 µM	> 100 µM	
CC(=O)OCCOCNC(=S)N/N=C(\C)c1ccco1		> 100 µM		> 100 µM		> 100 µM				> 100 µM				> 100 µM				> 100 µM	> 100 µM	
O=S1(=O)CSc2ccc3ccccc3c2-c2c1ccc1ccccc21		> 100 µM		> 100 µM		> 100 µM				> 100 µM				> 100 µM				> 100 µM		
CC(=O)O[C@H]1CC[C@@]2(C)C(=CC[C@@H]3C2CC[C@]2(C)Nc4oncc4CC32)C1 (some centres not stated)		33.2 µM		> 100 µM		> 100 µM				> 100 µM				> 100 µM					> 100 µM	
COC(=O)/C(C#N)=C1\N=NNN1CCCc1ccccc1		> 100 µM		> 100 µM										> 100 µM				52.7 µM	> 100 µM	
CCN(CCCl)CCNc1c2ccccc2nc2ccc(OC)cc12		2.6 µM		1.97 µM		4.04 µM				3.85 µM		3.55 µM		2.86 µM				1.71 µM	6.64 µM	
O=C(CC1C(=O)Nc2ccccc2S1=O)Nc1cccc(Cl)c1 (configuration not stated)		> 46.1 µM		45.6 µM		> 100 µM		34.4 µM		> 77.6 µM		29.9 µM		> 67.1 µM					47.3 µM	
CCN1C(=O)N(c2c(F)c(OC)cc(OC)c2F)Cc2cnc3[nH]c(CN4CCOCC4)cc3c21	16.9 µM	> 100 µM	0.394 µM	8.08 µM	9.23 µM	> 100 µM	3.06 µM	39.3 µM	2.35 µM	> 100 µM	8.04 µM	> 100 µM	1.44 µM	> 100 µM	4.34 µM	> 100 µM	3.12 µM	> 100 µM		
Cc1cc(Cl)ccc1N1C(=O)C(=O)C(c2nc3ccccc3s2)C(=O)C1=O		> 100 µM				> 100 µM				> 100 µM				> 100 µM				> 100 µM	> 100 µM	
CCOc1ccc(NC(=O)C2=C(C)NC(C)=C(C(=O)Nc3ccc(OCC)cc3)C2c2ccc([N+](=O)[O-])cc2)cc1		74.3 µM		> 100 µM		86.9 µM				> 100 µM				> 100 µM				> 100 µM	66.2 µM	
C/C=C/C1(NS(=O)(=O)c2ccc(C)cc2)CCC(C(C)(C)C)CC1 (configuration not stated)		31.8 µM		42.3 µM		39.5 µM				49.7 µM				77.2 µM				26 µM	49.3 µM	
Cc1cccc(C)c1NC(=O)C(=O)C1C(=O)N(c2ccccc2)N=C1N (configuration not stated)		> 100 µM		> 100 µM		> 100 µM				> 100 µM				> 100 µM				> 100 µM	> 100 µM	
CCC(=O)O[C@@H]1C2C(OC(C)=O)C34COC(C)([C@@H]3C3C(C[C@]3(C)OC(C)=O)[C@@H](OC(=O)c3ccccc3)C4=O)[C@H](OC(C)=O)[C@@]2(OC(C)=O)C[C@@H]1C (some centres not stated)		51 µM				> 100 µM				> 100 µM				40 µM				> 100 µM		
C[Si](C)(C)/C(Br)=C\CCN1C(=O)CCC1O (configuration not stated)				> 100 µM		> 100 µM								> 100 µM				> 100 µM	> 100 µM	
CC(C)(C)c1ccccc1NS(=O)(=O)c1ccccc1		> 100 µM		> 100 µM		> 100 µM				> 100 µM				> 100 µM					> 100 µM	
C[C@H](NC(=O)OC1C2C=CC(O)C1CC2)c1ccccc1 (some centres not stated)		> 100 µM		> 100 µM		> 100 µM				> 100 µM				> 100 µM				> 100 µM	> 100 µM	
N#CC(C#N)=C1NC(=O)C(c2ccccc2)C(=O)N1 (configuration not stated)		> 100 µM		> 100 µM		> 100 µM				> 100 µM				> 100 µM				> 100 µM	> 100 µM	
CCCCCCCCCCCCC(Br)C(=O)SCCNC(=O)CCNC(=O)[C@@H](O)C(C)(C)COP(=O)(O)OP(=O)(O)OCC1OC(n2cnc3c(N)ncnc32)C(O)C1OP(=O)(O)O (some centres not stated)		> 56.5 µM		> 56.5 µM		> 56.5 µM				> 56.5 µM				> 56.5 µM				> 56.5 µM	> 56.5 µM	
Cc1cc(S(N)(=O)=O)c(S/C(=N\NS(=O)(=O)c2ccc(Cl)cc2)c2ccc(Cl)cc2)cc1Cl	> 100 µM	> 100 µM	> 100 µM	> 100 µM	> 100 µM	> 100 µM	> 100 µM	> 100 µM	> 100 µM	> 100 µM	> 100 µM	> 100 µM	> 100 µM	> 100 µM	56.8 µM	> 100 µM	> 100 µM	> 100 µM		
